# Columns and labels:
# Assay in all cases: KiNativ kinome profiling in PANC-1 lysate
# Assay type in all cases: binding
# Erk3 = target: T1, Erk3 (Homo sapiens, UniProt Q16659); details: Lys2
# T1 construct: endogenous in cells; host or cells: PANC-1 lysate
# How it was run: (§1)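 PANC-1 lysates were incubated with 5 μM inhibitor or DMSO, then labeled with a desthiobiotin-ATP acyl-phosphate probe that biotinylates conserved kinase lysines. Tryptic peptides were streptavidin-enriched and quantified by LC-MS/MS, reported as % change in MS signal from duplicate treated and duplicate control samples.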
# MARK1, MARK2 = details: 5 µM; Lys1; EVAVKIIDK
# How it was run: as §1
# STLK5 = target: T2, STLK5 (Homo sapiens, UniProt Q7RTN6)
# T2 construct: endogenous in cells; host or cells: PANC-1 cell lysate
# How it was run: as §1
# DGKA = target: T3, DGKA (Homo sapiens, UniProt P23743); details: ATP
# T3 construct: endogenous in cells; host or cells: PANC-1 lysate
# How it was run: as §1
# FER = target: T4, FER (Homo sapiens, UniProt P16591)
# T4 construct: endogenous in cells; host or cells: PANC-1 lysate
# How it was run: as §1
# GSK3B = target: T5, GSK3B (Homo sapiens, UniProt P49841); details: Lys2
# T5 construct: we opted to conduct a kinome screen (KiNativ) in PANC-1 cell lysates; endogenous in cells; host or cells: PANC-1 cell lysate
# How it was run: as §1
# TBK1 = target: T6, TBK1 (Homo sapiens, UniProt Q9UHD2); details: Lys1
# T6 construct: endogenous in cells; host or cells: PANC-1 cell lysate
# How it was run: as §1
# CaMKK2 = target: T7, CaMKK2 (Homo sapiens, UniProt Q96RR4)
# T7 construct: endogenous in cells; host or cells: PANC-1 cell lysate
# How it was run: as §1
# [1] = system: MSK1 domain1, MSK2 domain1; details: 5 µM; ATP Loop; VLGTGAYGKVFLVR
# How it was run: as §1
# SIK = target: T8, SIK (Homo sapiens, UniProt P57059); details: Lys1
# T8 construct: endogenous in cells; host or cells: PANC-1 cell lysate
# How it was run: as §1
# MST2 = target: T9, MST2 (Homo sapiens, UniProt Q13188); details: Lys1
# T9 construct: endogenous in cells; host or cells: PANC-1
# How it was run: as §1
# EphA2 = target: T10, EphA2 (Homo sapiens, UniProt P29317); details: ATP Loop
# T10 construct: endogenous in cells; host or cells: PANC-1 lysate
# How it was run: as §1
# ULK3 = target: T11, ULK3 (Homo sapiens, UniProt Q6PHR2); details: Lys1
# T11 construct: endogenous in cells; host or cells: PANC-1 cell lysate
# How it was run: as §1
# RSK3 domain1 = target: T12, RSK3 domain1 (Homo sapiens, UniProt Q15349); details: Lys2
# T12 construct: endogenous in cells; host or cells: PANC-1 cell lysate
# How it was run: as §1
# NEK9 = target: T13, NEK9 (Homo sapiens, UniProt Q8TD19)
# T13 construct: endogenous in cells; host or cells: PANC-1 cell lysate
# T13 sequence (Q8TD19 1-979): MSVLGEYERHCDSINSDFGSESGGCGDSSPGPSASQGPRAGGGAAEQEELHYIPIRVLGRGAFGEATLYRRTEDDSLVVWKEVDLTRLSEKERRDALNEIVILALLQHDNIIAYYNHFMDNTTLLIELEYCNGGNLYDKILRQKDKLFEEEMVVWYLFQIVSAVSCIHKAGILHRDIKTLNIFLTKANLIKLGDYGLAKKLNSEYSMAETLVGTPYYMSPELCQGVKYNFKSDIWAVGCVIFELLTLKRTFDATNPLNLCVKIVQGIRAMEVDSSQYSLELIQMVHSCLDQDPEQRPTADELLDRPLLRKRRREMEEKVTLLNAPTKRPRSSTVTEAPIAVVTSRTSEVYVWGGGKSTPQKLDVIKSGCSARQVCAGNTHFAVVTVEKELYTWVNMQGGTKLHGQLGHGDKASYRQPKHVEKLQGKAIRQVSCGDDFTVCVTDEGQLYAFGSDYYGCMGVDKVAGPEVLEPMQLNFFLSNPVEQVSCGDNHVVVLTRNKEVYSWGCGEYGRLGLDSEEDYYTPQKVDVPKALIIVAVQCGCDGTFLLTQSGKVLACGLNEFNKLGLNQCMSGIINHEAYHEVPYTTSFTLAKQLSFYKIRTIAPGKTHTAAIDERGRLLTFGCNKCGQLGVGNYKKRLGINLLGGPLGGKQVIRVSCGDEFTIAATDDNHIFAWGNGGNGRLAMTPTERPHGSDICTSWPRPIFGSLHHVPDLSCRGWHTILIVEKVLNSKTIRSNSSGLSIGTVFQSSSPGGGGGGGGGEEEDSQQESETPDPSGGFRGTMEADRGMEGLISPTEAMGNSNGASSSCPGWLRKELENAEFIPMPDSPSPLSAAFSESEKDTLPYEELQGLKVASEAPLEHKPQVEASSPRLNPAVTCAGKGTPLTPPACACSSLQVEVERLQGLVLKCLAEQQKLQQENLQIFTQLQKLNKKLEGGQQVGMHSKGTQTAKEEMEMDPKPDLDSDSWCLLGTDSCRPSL
# How it was run: as §1
# T2 sequence (Q7RTN6 whole entry): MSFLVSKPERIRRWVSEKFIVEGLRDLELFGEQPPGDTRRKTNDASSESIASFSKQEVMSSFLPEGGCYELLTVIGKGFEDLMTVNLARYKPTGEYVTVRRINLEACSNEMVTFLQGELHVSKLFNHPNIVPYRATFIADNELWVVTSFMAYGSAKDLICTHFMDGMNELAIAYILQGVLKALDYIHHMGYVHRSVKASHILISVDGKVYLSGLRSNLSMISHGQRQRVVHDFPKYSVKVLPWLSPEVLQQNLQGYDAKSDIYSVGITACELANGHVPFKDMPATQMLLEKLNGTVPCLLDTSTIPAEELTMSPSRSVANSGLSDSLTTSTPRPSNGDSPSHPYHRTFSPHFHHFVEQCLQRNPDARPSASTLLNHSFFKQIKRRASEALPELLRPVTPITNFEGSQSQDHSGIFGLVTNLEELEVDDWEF
# T7 sequence (Q96RR4 whole entry): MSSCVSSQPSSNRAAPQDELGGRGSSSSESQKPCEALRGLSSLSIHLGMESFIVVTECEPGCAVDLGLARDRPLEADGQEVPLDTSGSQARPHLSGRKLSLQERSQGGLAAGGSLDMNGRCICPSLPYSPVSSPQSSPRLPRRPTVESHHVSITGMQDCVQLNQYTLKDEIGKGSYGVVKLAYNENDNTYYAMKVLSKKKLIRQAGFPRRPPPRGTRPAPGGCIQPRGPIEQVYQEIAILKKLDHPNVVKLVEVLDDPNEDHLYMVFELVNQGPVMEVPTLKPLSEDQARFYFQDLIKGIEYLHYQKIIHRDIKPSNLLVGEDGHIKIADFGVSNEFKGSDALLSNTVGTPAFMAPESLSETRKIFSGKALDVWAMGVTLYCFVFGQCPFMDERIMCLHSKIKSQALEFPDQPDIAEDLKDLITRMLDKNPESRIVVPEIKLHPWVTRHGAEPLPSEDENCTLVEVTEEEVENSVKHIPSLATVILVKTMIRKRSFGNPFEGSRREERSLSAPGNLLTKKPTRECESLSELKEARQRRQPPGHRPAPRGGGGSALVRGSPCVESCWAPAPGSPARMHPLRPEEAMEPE
# T4 sequence (P16591 whole entry): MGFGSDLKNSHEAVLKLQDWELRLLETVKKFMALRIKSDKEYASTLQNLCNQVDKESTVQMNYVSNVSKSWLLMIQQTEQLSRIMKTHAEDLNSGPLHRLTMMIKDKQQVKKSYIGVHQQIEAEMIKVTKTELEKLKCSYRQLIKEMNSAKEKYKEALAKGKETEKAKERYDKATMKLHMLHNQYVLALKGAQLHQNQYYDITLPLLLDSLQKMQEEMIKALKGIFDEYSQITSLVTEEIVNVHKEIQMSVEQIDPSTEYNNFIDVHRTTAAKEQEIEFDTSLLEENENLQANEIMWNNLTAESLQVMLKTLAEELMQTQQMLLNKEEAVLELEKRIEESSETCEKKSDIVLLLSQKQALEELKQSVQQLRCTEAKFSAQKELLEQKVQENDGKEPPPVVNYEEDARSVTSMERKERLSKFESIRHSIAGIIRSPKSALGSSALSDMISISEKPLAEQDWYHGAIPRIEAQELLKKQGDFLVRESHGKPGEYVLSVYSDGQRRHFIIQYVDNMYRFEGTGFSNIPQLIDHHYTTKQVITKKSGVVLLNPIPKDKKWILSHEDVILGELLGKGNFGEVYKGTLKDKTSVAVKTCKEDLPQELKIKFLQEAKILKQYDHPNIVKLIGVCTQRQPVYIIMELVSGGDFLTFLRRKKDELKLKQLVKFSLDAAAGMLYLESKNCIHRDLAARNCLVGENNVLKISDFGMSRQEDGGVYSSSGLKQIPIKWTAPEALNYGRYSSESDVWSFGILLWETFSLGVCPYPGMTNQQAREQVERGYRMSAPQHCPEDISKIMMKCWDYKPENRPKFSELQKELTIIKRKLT
# T10 sequence (P29317 24-976): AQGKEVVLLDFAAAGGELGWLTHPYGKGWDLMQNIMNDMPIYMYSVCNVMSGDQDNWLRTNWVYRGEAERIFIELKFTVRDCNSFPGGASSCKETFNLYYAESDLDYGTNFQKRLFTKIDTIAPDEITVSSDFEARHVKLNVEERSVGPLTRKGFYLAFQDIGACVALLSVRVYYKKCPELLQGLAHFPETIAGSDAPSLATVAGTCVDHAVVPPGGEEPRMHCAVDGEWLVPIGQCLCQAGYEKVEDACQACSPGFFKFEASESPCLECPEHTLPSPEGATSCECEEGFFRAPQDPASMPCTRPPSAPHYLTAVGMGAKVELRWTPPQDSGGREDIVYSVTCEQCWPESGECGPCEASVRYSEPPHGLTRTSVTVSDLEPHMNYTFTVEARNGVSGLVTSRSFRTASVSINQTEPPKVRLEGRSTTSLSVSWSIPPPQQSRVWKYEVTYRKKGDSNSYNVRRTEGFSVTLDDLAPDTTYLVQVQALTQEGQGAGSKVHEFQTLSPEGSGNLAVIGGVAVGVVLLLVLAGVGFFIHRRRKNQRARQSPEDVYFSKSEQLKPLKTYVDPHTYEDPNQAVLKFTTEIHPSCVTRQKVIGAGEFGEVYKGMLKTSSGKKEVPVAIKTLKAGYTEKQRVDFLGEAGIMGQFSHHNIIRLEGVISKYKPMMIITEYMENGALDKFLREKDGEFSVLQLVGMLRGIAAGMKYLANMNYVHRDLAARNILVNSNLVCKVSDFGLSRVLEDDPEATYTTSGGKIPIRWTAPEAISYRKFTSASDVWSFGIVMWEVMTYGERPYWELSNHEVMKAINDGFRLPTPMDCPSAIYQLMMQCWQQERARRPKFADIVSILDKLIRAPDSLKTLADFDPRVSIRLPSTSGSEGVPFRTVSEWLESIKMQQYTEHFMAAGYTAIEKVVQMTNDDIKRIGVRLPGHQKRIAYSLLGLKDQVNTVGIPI
# T12 sequence (Q15349 whole entry, the tested form may be a part): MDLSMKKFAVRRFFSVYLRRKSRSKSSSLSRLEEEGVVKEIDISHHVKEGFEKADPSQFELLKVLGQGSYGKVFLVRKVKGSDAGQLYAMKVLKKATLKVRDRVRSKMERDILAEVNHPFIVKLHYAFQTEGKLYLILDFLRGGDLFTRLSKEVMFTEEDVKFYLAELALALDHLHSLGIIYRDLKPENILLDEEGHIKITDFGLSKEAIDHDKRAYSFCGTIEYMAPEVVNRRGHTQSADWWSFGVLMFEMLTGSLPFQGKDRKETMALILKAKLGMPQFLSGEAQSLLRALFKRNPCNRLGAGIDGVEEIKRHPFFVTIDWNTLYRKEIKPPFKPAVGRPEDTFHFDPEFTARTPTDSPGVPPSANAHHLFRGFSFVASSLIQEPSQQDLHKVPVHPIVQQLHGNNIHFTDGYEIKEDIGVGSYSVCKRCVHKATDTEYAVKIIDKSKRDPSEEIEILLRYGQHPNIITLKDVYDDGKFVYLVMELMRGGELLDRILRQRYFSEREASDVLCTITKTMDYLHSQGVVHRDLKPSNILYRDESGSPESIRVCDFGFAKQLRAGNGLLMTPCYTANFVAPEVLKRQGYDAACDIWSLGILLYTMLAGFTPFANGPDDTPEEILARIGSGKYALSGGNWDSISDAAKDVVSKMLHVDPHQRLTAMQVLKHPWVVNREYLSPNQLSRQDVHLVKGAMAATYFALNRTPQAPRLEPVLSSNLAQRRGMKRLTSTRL
# T9 sequence (Q13188 whole entry): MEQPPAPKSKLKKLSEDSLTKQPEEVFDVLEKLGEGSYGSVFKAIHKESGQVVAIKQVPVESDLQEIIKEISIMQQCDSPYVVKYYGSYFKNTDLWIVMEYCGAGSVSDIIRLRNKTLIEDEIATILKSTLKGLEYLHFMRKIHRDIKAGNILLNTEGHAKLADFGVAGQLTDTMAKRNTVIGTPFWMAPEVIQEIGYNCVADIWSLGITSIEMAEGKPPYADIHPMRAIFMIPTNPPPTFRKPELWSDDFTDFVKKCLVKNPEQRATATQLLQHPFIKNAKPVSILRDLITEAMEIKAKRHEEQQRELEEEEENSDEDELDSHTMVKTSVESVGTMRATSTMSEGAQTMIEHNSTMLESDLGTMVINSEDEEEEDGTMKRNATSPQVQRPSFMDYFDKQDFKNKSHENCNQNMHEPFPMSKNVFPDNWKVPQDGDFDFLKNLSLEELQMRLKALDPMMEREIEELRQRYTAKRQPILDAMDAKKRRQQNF
# T11 sequence (Q6PHR2 whole entry): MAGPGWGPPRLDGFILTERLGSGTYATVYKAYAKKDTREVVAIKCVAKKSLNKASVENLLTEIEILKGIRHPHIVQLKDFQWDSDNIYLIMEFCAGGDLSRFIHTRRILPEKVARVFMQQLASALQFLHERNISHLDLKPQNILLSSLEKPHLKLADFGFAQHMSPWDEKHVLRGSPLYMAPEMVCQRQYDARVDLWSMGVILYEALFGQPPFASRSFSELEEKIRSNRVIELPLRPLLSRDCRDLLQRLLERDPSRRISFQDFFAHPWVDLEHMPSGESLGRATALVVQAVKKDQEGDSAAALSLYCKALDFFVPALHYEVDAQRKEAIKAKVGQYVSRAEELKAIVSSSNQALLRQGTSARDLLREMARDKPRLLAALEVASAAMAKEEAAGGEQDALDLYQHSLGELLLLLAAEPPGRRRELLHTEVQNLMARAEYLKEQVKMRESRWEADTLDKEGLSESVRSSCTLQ
# T5 sequence (P49841 whole entry): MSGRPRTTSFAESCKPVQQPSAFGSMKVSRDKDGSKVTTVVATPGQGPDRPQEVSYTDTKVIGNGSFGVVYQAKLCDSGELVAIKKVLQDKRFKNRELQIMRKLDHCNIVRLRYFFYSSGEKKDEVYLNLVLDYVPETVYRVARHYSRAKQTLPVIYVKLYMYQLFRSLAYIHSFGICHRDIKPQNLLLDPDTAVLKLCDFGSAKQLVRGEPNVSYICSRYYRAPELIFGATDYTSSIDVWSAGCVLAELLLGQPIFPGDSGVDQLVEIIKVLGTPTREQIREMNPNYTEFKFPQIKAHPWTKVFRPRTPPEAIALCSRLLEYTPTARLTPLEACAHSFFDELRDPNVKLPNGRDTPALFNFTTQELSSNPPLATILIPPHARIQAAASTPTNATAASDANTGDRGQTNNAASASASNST
smiles,measurement,setting,value
"Cn1cc(-c2cnc3ccc(NC(=O)Nc4ccc(F)c(C(F)(F)F)c4)cc3n2)cn1 [51-106, 1-(4-Fluoro-3-(trifluoromethyl)phenyl)-3-(3-(1-methyl-1H-pyrazol-4-yl)quinoxalin-6-yl)urea]",inhibition at 5 µM,Erk3,≤ 0%
same,% Inhibition,"MARK1, MARK2",NB (NB = No Binding (≤ 0))
same,% Inhibition,"STLK5; 5 µM, Lys2, SVKASHILISVDGK",NB (NB = No Binding (≤ 0))
same,inhibition at 5 µM,"STLK5; ATP Loop, […]",≤ 0%
same,inhibition at 5 µM,DGKA,≤ 0%
same,% Inhibition,"FER; 5 µM, ATP Loop, QEDGGVYSSSGLKQIPIK",NB (NB = No Binding (≤ 0))
same,inhibition at 5 µM,"FER; Lys1, […]",≤ 0%
same,inhibition at 5 µM,GSK3B,≤ 0%
same,inhibition at 5 µM,TBK1,5.7%
same,inhibition at 5 µM,"CaMKK2; Lys1, LAYNENDNTYYAMKVLSK",2.6%
same,inhibition at 5 µM,"CaMKK2; Lys2, DIKPSNLLVGEDGHIK",≤ 0%
same,% Inhibition,[1],0.1%
same,inhibition at 5 µM,SIK,23.3%
same,inhibition at 5 µM,MST2,0.8%
same,inhibition at 5 µM,EphA2,≤ 0%
same,inhibition at 5 µM,ULK3,≤ 0%
same,inhibition at 5 µM,RSK3 domain1,≤ 0%
same,inhibition at 5 µM,"NEK9; ATP Loop, LGDYGLAKK",≤ 0%
same,inhibition at 5 µM,"NEK9; Lys1, RTEDDSLVVWKEVDLTR",0.6%
same,inhibition at 5 µM,"NEK9; Lys2, DIKTLNIFLTK",13.8%
